Measurements from patent publication US20080293969A1, “18F-Labeled Daa Analogues and Method of Labeling These Analogues as Positron Emission Tomography (Pet) Tracers For Imaging Peripheral Benzodiazepine Receptors” (GE Healthcare Limited, priority 2005, published 2008).

Key:
[1] = molecular target: PBR (Homo sapiens, UniProt P30536); conditions: reported, Drug Dev. Research, 2001, vol. 52, 475-484; cited from earlier work
[2] = molecular target: T1, peripheral benzodiazepine receptors (PBR) (Sus scrofa, UniProt Q6UN27); experiment: Frozen section autoradiography; format: binding, pig
T1 construct: from tissue; host or cells: pig adrenal cryosections (rat heart and rat brain sections were run in the same assay)
T1 sequence (Q6UN27 1-169): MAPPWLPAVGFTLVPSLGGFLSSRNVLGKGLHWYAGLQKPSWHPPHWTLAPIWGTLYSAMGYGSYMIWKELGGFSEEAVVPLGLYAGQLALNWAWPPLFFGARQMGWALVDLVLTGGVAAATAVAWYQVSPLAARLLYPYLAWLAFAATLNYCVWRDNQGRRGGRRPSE
Method: (§1) Frozen Section Autoradiography.
(§2) Cryosections of pig adrenal, rat heart and rat brain were incubated with [^18F] labeled N-(2,5-dimethoxybenzyl)-3-fluoro-N-(5-fluoro-2-phenoxy-phenyl)propanamide (SAN1) for 40 min at R.T. in 50 mM Tris-HCl, pH 7.4, in the presence or absence of 1 μM PK11195 (selective PBR ligand). Thereafter, sections were washed in buffer 3×1 min, dried in a heated oven (37° C.) and exposed to phosphor imaging plates for 240 min. Assessment of the selectivity of the radioligand for PBRs was assessed by comparing the regional distribution of radioactivity with known distribution of PBRs in tissue. Another parameter investigated was the blocking effect in sections which were co-incubated with an excess of PK11195.

[3] = system: peripheral benzodiazepine receptors (PBR); experiment: Frozen section autoradiography; format: binding, pig; conditions: frozen section autoradiography
Method: as §1, §2

[4] = Biodistribution in rats; format: in vivo, male Sprague-Dawley rats; conditions: 10 MBq/kg tail vein, 15 min post-injection
Method: SAN1 at 10 MBq/kg was injected in the tail vein of male Sprague-Dawley rats. Rats were sacrificed 15 min post-injection and blood, cortex, olfactory bulb, adrenal and cerebellum were dissected, weighed and radioactivity in the organs was measured. Uptake in organs was expressed as Standardized Uptake Value, SUV. The scope of this experiment was to assess blood brain penetration of the radiolabeled compound as well as its distribution to organs known to express PBR, e.g. adrenal medulla. […] Additionally, we observed a large uptake of SAN1 in adrenal which is the peripheral organ with the highest density of PBRs. Biodistribution data from 4 rats was summarized and is shown in the diagram below, error bars represent the SEM.

Sequence of PBR (P30536 whole entry, species assumed): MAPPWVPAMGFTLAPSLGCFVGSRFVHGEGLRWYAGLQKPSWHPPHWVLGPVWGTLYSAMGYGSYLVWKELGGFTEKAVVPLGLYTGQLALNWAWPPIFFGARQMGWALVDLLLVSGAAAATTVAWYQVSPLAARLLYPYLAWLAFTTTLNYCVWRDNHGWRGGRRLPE

Compound	affinity and selectivity for PBR [1]	blocking of adrenal medulla uptake by an excess of PK11195 ([2]; co-incubated with 1 μM PK11195)	uptake in adrenal medulla ([2]; cryosections of pig adrenal, incubated 40 min at R.T., 50 mM Tris-HCl pH 7.4)	binding and specificity for PBR-rich tissues [3]	brain to blood ratio ([4]; all regions analyzed (cortex, olfactory bulb, cerebellum), particularly olfactory bulb)	uptake in adrenal ([4]; uptake expressed as SUV)
CC(=O)N(Cc1ccccc1OC(C)C)c1ccc(Cl)cc1Oc1ccccc1 [DAA1097, N-(4-chloro-2-phenoxyphenyl)-N-(2-isopropoxybenzyl)-acetamide]	high affinity selective ligands					
COc1ccc(OC)c(CN(C(C)=O)c2cc(F)ccc2Oc2ccccc2)c1 [DAA1106, N-(2,5-dimethoxybenzyl)-N-(5-fluoro-2-phenoxyphenyl)acetamide]	high affinity selective ligands					
COc1ccc(OC)c(CN(C(=O)CC[18F])c2cc(F)ccc2Oc2ccccc2)c1 [SAN1, [^18F] labeled N-(2,5-dimethoxybenzyl)-3-fluoro-N-(5-fluoro-2-phenoxy-phenyl)propanamide]		completely blocked	high uptake	good binding and specificity	above 1	large uptake
